EC50 data for 97 compounds are collected here from PubChem BioAssay AID743059 (The Scripps Research Institute Molecular Screening Center, 2013).

The structures appear in SMILES notation. The source made the active and inactive calls.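 How the source made its calls: active means EC50 at or below 10 µM; inactive means EC50 above 10 µM.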

For orientation: EC50 means the concentration needed to bring the measured effect to its halfway point.

In this test the target is Nuclear hormone receptor DAF-12 (Heterodera glycines). As to the kind of experiment: H. glycines DAF-12 receptor agonist potency, dose response, cell-based, luminescence, HEK293 (AID 743059). To be noted: HEK293 hgDAF-12 reporter, luciferase luminescence.
On to `CCCSc1nsc(NC(=O)CC)n1`, for which the EC50 was > 67.5 µM (inactive). In the case of `Cc1nc2nc(-c3cccs3)[nH]c2cc1Br`, the EC50 is > 67.5 µM (inactive). The result for `c1ccc([C@H]2CN3C(=N2)Sc2ccccc23)cc1` reads > 67.1 µM (inactive).

As to `c1ccc(CN=C2Nc3ccccc3CS2)nc1`, the EC50 is > 67.5 µM (inactive). The result for `Clc1cccc(-c2nnc(-c3ccccc3)o2)c1` reads > 67.5 µM (inactive); that for `Cn1c(SCc2ccccc2F)nc2cccnc21`, > 67.5 µM (inactive). Consider `Cc1cc2ncc(-c3ccccc3)nc2cc1C`, for which the EC50 was > 67.5 µM (inactive). For `CCNC(=S)NNC(=O)c1cc(-c2ccc(OCC)cc2)nc2ccccc12`, the EC50 is > 67.5 µM (inactive). Turning to `Cc1ccc(N/C=C(/C#N)c2ccsc2)cc1C`, the EC50 was > 67.5 µM (inactive). Turning to `Cc1ccc(CN2CCN(CC(C)C)C(CCO)C2)s1` (configuration not stated), the EC50 is > 67.6 µM (inactive).

Take `Cc1ccc(/C=N/NC(=O)c2ccccn2)s1`: the EC50 is > 67.6 µM (inactive). The result for `Cc1nc(N)sc1N=Nc1ccc(Br)cc1` reads > 67.5 µM (inactive); that for `OCCN1CCN(c2cnc(-c3ccsc3)cn2)CC1`, > 67.5 µM (inactive). For `Cc1ccnc(NC(=O)C2CCN(S(=O)(=O)c3c(C)c(C)cc(C)c3C)CC2)c1`, the EC50 is > 67.6 µM (inactive). The result for `CCCCCc1nnc(NC(=O)C2=COCCO2)s1` reads > 67.6 µM (inactive). The result for `CCOc1ccc(-c2c(=O)n(O)c3ccccc3[n+]2[O-])cc1` reads “inactive”; that for `Cn1c(NC(=O)CCC2CCCCC2)cc(=O)n(C)c1=O`, > 67.5 µM (inactive).

`O=c1[nH]c(=O)n(C2CC(O)C(CO)O2)cc1I` (configuration not stated): the EC50 was > 67.6 µM (inactive).

Regarding `Cc1nc2sc(-c3ccccc3)nn2c(=O)c1Br`, the EC50 is > 67.5 µM (inactive). The result for `CCOC(=O)c1sc2nc3c(cc2c1N)COC(C)(CC)C3` (configuration not stated) reads > 67.5 µM (inactive); that for `Cn1c(NC(=O)CCc2ccccc2)cc(=O)n(C)c1=O`, > 67.5 µM (inactive). The result for `Cc1ccc(-c2nc(Nc3ccccc3)n[nH]2)cc1` reads > 67.5 µM (inactive). The result for `CSc1ccc(/C=N/Nc2ccc(Cl)c(C(=O)O)c2)cc1` reads > 67.5 µM (inactive); that for `Cc1cc(NC(=O)CSc2nc3c(cc2C#N)CCC3)no1`, > 67.6 µM (inactive); that for `c1ccc(Nc2nc(-c3ccccc3)ns2)cc1`, > 67.6 µM (inactive). Regarding `Clc1ccc(-c2cn3cc(Cl)ccc3n2)cc1`, the EC50 was > 67.6 µM (inactive).

As for `Cc1ccnc(NC(=O)CCNS(=O)(=O)c2ccc(C)c(C)c2)c1`, the EC50 was > 67.6 µM (inactive).

Regarding `CCCn1c(=NC(=O)c2ccco2)c(C(=O)OCC)cc2c(=O)n3ccccc3nc21`, the EC50 is > 67.5 µM (inactive). The result for `COc1cccc(/C=C/c2ccc3cccc(O)c3n2)c1` reads > 67.5 µM (inactive); that for `COc1ccccc1-c1noc(-c2cccs2)n1`, > 67.5 µM (inactive). Consider `O=C(NCCCn1ccnc1)c1cc(-c2cccs2)on1`, for which the EC50 was 9.01 µM. As for `Cc1ccn(-c2cccc(-n3ccc(C)n3)n2)n1`, the EC50 is > 67.6 µM (inactive). For `c1csc(-c2nnc(-c3ccc(N4CCOCC4)cc3)o2)c1`, the EC50 was > 67.5 µM (inactive). Turning to `CCN(CC)S(=O)(=O)c1ccc(C(=O)OCC(=O)Nc2ccc(-c3nc4ccc(C)cc4s3)cc2)cc1`, the EC50 is > 67.5 µM (inactive). As for `CC1CCc2c(sc(NC(=O)C3=COCCO3)c2C(N)=O)C1` (configuration not stated), the EC50 is > 67.5 µM (inactive). The result for `Cc1cc2nc(-c3cccnc3SCC(=O)NCc3ccco3)[nH]c2cc1C` reads > 67.6 µM (inactive). The result for `O=C(NCC1CCCO1)c1cc(-c2ccccc2F)no1` (configuration not stated) reads “inactive”; that for `C/C(=N/OCc1ccc(Br)cc1)c1ccccn1`, > 67.6 µM (inactive).

For `Clc1ccc(OCCSc2ncccn2)c(Br)c1`, the EC50 is > 67.5 µM (inactive). Consider `Cc1ccnc(NC(=O)/C=C/c2cccs2)c1`, for which the EC50 is > 67.6 µM (inactive).

For the compound `O=C1/C(=C\c2cccs2)Sc2ccc3ccccc3c21`, the EC50 was > 67.5 µM (inactive). As to `Cc1cc(O)ccc1Nc1cc(-c2cccc(N(C)C)c2)ncn1`, the EC50 is > 67.5 µM (inactive).

With `CC1CCC(NC(=O)c2cccn2C)CC1` (configuration not stated), the EC50 is > 67.6 µM (inactive). As for `COc1cccc(-c2nc3ccccc3s2)c1`, the EC50 was > 67.5 µM (inactive). The result for `c1ccc(CSc2ccc(-c3cccs3)nn2)cc1` reads > 67.5 µM (inactive); that for `Nc1ccc2c(c1)Cc1cc(N)c(Cl)cc1-2`, > 67.4 µM (inactive). The result for `CCOC(=O)c1cn[nH]c1NC(=S)Nc1ccccc1` reads > 67.6 µM (inactive); that for `N#C/C(=N\Nc1ccc(Cl)cc1)C(=N)N1CCCCCC1`, > 67.5 µM (inactive). The result for `COC(=O)c1sc2nc3c(cc2c1N)CCCC3` reads > 67.5 µM (inactive); that for `Cc1cc(C(=O)CSc2cccc[n+]2[O-])c(C)n1-c1ccccc1`, > 67.5 µM (inactive); that for `Nc1ncc(Br)cc1N=Cc1ccccc1`, > 67.5 µM (inactive). Regarding `Cc1scc(C(=O)N/N=C/c2ccsc2)c1C`, the EC50 is > 67.6 µM (inactive). The result for `Cc1cc(C)n2c(NC3CCCC3)c(-c3cc4ccccc4o3)nc2n1` reads > 67.5 µM (inactive); that for `c1ccc(CSc2ccc(-c3ccccn3)nn2)nc1`, > 67.5 µM (inactive).

Turning to `Cc1ccsc1/C=N/NC(=O)c1sccc1C`, the EC50 was > 67.5 µM (inactive). The result for `CN(C)c1ccc(Nc2nc(-c3cccnc3)cs2)cc1` reads > 67.5 µM (inactive). With `c1ccc(Nc2nc(-c3cccnc3)cs2)nc1`, the EC50 was > 67.6 µM (inactive).

In the case of `CC(C)C[C@H](NC(=O)OCC1c2ccccc2-c2ccccc21)C(=O)O`, the EC50 is > 67.5 µM (inactive). Turning to `COc1ccc2oc(C(=O)Nc3nccs3)c(C)c2c1`, the EC50 is > 67.5 µM (inactive).

As for `Nc1c(OS(=O)(=O)c2ccccc2)cccc1OS(=O)(=O)c1ccccc1`, the EC50 was > 67.5 µM (inactive). The result for `Cc1ccc(-c2onc3ccc(C(=O)O)cc23)cc1` reads > 67.6 µM (inactive). The result for `Cc1cccc(/C(N)=N/OC(=O)c2ccco2)c1` reads > 67.6 µM (inactive); that for `N#Cc1c(N)nc(N)nc1Nc1ccc(Br)cc1`, > 67.4 µM (inactive); that for `Cc1ccc(/C(N)=N/OC(=O)c2ccco2)cc1`, > 67.5 µM (inactive). The result for `C#CCNC(=O)C[C@H]1C[C@@]2(C(=O)OC)C(=C[C@H](C(C)C)O[C@@H]2C2CC2)N(CCCCCCCC)C1=O` reads > 67.5 µM (inactive). In the case of `CC/C(=N\NC(=O)c1ccoc1C)c1ccc(C)o1`, the EC50 is > 67.5 µM (inactive).

Consider `O=C(NCCc1ccccc1)c1cc(-c2ccco2)on1`, for which the EC50 is 7.6 µM. The result for `O=C(CC(=O)c1cccs1)c1ccncc1` reads > 67.5 µM (inactive); that for `O=[N+]([O-])c1ccc2c(c1)Nc1nc3ccccc3nc1N2`, > 67.5 µM (inactive); that for `Cc1ccc(SCCN2CCC(C)CCC2=O)cc1` (configuration not stated), > 67.5 µM (inactive).

Consider `Cc1cccc(NC(=O)c2ccc3ccccc3n2)c1C`, for which the EC50 was > 67.5 µM (inactive). Turning to `Cc1csc(NC(=O)c2ccc3ccccc3n2)n1`, the EC50 is > 67.6 µM (inactive). The result for `Oc1[nH]c2ccccc2c1N=Nc1ccccc1F` reads > 67.6 µM (inactive); that for `O=c1c2ccccc2nnn1CSc1ccccc1F`, > 67.5 µM (inactive). As to `Oc1ccc(N=Nc2ccc3ccccc3c2)cc1`, the EC50 was > 67.5 µM (inactive). In the case of `Cc1cc(-c2ccncc2)n2ncc(-c3ccccc3)c2n1`, the EC50 is > 67.6 µM (inactive). The result for `COC1=C/C(=C/c2c(N)n3nc(-c4ccc(C)cc4)sc3nc2=O)C=CC1=O` reads > 67.5 µM (inactive); that for `CCc1cc(C(=O)Nc2ncccc2O)sc1C`, > 67.5 µM (inactive); that for `Nc1c2c(nc3sc4c(c13)CCCC4)CCCCC2`, > 67.6 µM (inactive). The result for `CN(C)c1cccc(-c2cnc(N3CCC(C(N)=O)CC3)s2)c1` reads > 67.5 µM (inactive).

`CCc1ccc(C2CC(c3ccco3)=NN2S(C)(=O)=O)cc1` (configuration not stated): the EC50 was > 67.5 µM (inactive). The result for `Cc1ccc2nc(C)/c(=N\O)c(C)nc2c1` reads > 67.6 µM (inactive); that for `COc1ccc(Oc2cnn(-c3ccccc3)c(=O)c2Br)cc1`, > 67.5 µM (inactive). The result for `CCOC(=O)c1cnc(SCCc2ccccc2)nc1N` reads > 67.5 µM (inactive); that for `O=c1[nH]cnc2cc(-c3ccccc3)sc12`, > 67.5 µM (inactive); that for `CCCS(=O)(=O)NCc1cn2c(C)csc2n1`, > 67.5 µM (inactive).

Take `O=C(O)c1cc(-c2cccs2)[nH]n1`: the EC50 is > 67.6 µM (inactive). The result for `Cc1cc(C(=O)CSc2ncccn2)c(C)n1Cc1ccco1` reads > 67.5 µM (inactive).

As for `NC(=Nc1ccccc1)NC(=O)c1nc(Cl)c(N)nc1N`, the EC50 was > 67.5 µM (inactive). The result for `COc1ccccc1/C=N\N=C(\N)c1ccccn1` reads > 67.6 µM (inactive); that for `ON=C(CCc1ccccc1)c1ccccc1`, > 67.5 µM (inactive). The result for `Cc1ccc(-c2nnc(NC3CCCC3)s2)cc1` reads > 67.6 µM (inactive). Take `Cc1cnc(NC(=O)COc2ccc3c(c2)CCC3)s1`: the EC50 is > 67.6 µM (inactive). The result for `CC(C)Oc1cc(O)c2c(=O)c(-c3ccc(O)cc3)coc2c1` reads > 67.6 µM (inactive); that for `CN1CCN(/C=N/c2sc3c(c2C#N)CCCCC3)CC1`, > 67.5 µM (inactive). Regarding `N#Cc1c(Br)n(C2OC(CO)C(O)C2O)c2ncnc(N)c12` (configuration not stated), the EC50 was > 67.5 µM (inactive). For `Cc1ccc2c(c1)N=C(c1ccccc1)CC(C(Cl)Cl)=N2`, the EC50 was > 67.5 µM (inactive).
